Test results as given in PMC6132053, “Virtual Screening and Biomolecular Interactions of CviR-Based Quorum Sensing Inhibitors Against Chromobacterium violaceum” (Frontiers in Cellular and Infection Microbiology, 2018).
Read-outs that look alike come from different tables or passages of the source.

Biological target: T1, CviR (LuxR homologue) (Chromobacterium violaceum, UniProt D3W065)
T1 construct: CviR ORF in pET28a, SUMO + His-tag fusion, E. coli BL21 (DE3), Ni-Sepharose, eluted by ULP proteinase digestion; RED-NHS labelled
T1 sequence (D3W065 1-265): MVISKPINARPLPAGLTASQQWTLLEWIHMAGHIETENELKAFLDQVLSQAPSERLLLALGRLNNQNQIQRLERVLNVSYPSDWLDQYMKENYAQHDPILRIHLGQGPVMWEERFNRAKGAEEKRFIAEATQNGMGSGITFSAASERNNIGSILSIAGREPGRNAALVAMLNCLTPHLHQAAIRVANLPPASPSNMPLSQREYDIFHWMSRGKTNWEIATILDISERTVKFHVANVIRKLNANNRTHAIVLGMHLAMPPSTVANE
Assay: microscale thermophoresis (RED-NHS labelled CviR)
Type: binding

[1] = 50 mM Tris-HCl, 150 mM NaCl, 10 mM MgCl2, 0.05% Tween-20, labelled protein, stated 20 μM CviR

SMILES	Kd [1]	Kd
Oc1ccc2c(c1)OC[C@](O)(Cc1ccc(O)c(O)c1)[C@H]2O [SPL, Sappanol]	MST results suggested that all the QSIs except C7X have significant binding ability	
CC(C)=CCc1cc2c(cc1O)O[C@H](c1ccc(O)cc1)CC2=O [BN2, Bavachin]		45.1 ± 1.9 nM
O=C(/C=C/c1ccc(O)c(O)c1)c1ccc(O)cc1O [BN1, Butein]	MST results suggested that all the QSIs except C7X have significant binding ability	
